SMILES strings stand for the structures.

Here are results for two molecules from patent US20220218675A1, “TREATMENT OF OCULAR DISEASE” (PREMARK PHARMA GMBH, priority 2019, published 2022).

For data set [1] the following is noted: slightly soluble in water; cited from earlier work.
Data set [2] deals with animal models of skin inflammation. The conditions noted are these: in vivo; cited from earlier work.
In data set [3] the test system is skin. To be noted: cited from earlier work.
The nature of data set [4]: Solubility of pimecrolimus in different solvents (HPLC after 24-hour equilibration at 25 °C). Format: physicochemical. The method, then:
FIG. 2: Solubility of pimecrolimus in different solvents. […] Form B refers to the anhydrous, crystalline polymorph B of pimecrolimus that has been used in the manufacture of the composition according to the invention. The legend in the lower table defines the terms used for the categorization of solubility.
The solubility of pimecrolimus in different solvents was determined by HPLC after 24-hour equilibration (vibration) at 25.0+/−0.5° C. After the vibration, the precipitate was separated from the solution, dried and investigated by DSC and by X-ray diffraction pattern.

Consider `OCCc1ccccc1` [Phenyl ethyl alcohol, 2-phenyl-ethan-1-ol], for which the Solubility in water in data set [1] is reported as 2 ml/100 ml H2O.

On to `CC[C@@H]1/C=C(\C)C[C@H](C)C[C@H](OC)[C@H]2O[C@@](O)(C(=O)C(=O)N3CCCC[C@H]3C(=O)O[C@H](/C(C)=C/[C@@H]3CC[C@H](Cl)[C@H](OC)C3)[C@H](C)[C@@H](O)CC1=O)[C@H](C)C[C@@H]2OC` [pimecrolimus, (1R,9S,12S,13R,14S,17R,18E,21S,23S,24R,25S,27R)-12-[(1E)-2-{(1R,3R,4S)-4-chloro-3-methoxycyclohexyl}-1-methylvinyl]-17-ethyl-1,14-dihydroxy-23,25-dimethoxy-13,19,21,27-tetramethyl-11,28-dioxa-4-aza-tricyclo[22.3.1.04,9]octacos-18-ene-2,3,10,16-tetraone], for which the “Efficacy in animal models of skin inflammation” value in data set [2] was “highly effective”. Also, in data set [3] (compared with cyclosporin A and tacrolimus), the “Potential for systemic immunosuppression” value is “lower potential for systemic immunosuppression than cyclosporin A and tacrolimus”. In addition, in data set [3] (compared with cyclosporin A), the “Anti-inflammatory activity in the skin, topical” value was “greater anti-inflammatory activity in the skin than cyclosporin A”. In addition, the “Skin atrophy” value in data set [3] (in contrast to steroids) was “does not induce skin atrophy”. Moreover, in data set [4], the “Solubility in excipients that can be used in semi-solid formulations for dermal and ophthalmic use” value is reported as “very poor”. Further, the “Solubility in aqueous solutions and water” value in data set [4] (24-hour equilibration at 25.0+/-0.5 °C, HPLC, FIG. 2) was “insoluble”.
